ChEMBL document CHEMBL1201862, “PubChem BioAssay data set” (2004)
Calls of active or inactive are those of the source.

What was measured:
[1] = molecular target: T1, Heat shock factor protein 1 (Mus musculus, UniProt P38532); assay: decrease of HSF1-responsive luciferase luminescence – cell-based, NIH3T3, dose retest, confirmation (AID 2382); assay type: functional;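 note: NIH3T3 fibroblasts with HSF1-driven luciferase reporter stressed by proteasome inhibitor MG132; luminescence from HSF1-driven luciferase expression after 8 hours of MG132 stress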
T1 sequence (P38532 whole entry): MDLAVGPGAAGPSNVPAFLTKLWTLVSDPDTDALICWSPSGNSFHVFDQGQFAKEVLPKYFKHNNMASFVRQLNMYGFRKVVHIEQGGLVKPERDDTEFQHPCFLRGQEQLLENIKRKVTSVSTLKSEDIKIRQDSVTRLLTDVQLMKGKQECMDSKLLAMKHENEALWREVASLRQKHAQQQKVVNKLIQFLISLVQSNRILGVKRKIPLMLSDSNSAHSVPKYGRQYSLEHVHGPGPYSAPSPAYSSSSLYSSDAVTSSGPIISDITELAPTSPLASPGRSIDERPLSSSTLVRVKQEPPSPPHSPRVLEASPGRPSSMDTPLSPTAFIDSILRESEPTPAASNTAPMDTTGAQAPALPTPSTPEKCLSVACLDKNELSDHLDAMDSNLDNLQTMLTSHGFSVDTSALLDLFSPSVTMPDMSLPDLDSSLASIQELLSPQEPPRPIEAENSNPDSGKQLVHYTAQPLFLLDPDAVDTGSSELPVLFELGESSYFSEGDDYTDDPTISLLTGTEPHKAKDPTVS

[2] = blockers of HIV-1 envelope-mediated cell-cell fusion – cherry-pick, dose response (AID 652057); assay type: functional, cell-based
[3] = blockers of HIV-1 ZM109 envelope-driven cell-cell fusion – HeLa effector, CEM target cells, luciferase, cherry-pick, dose response (AID 652058); assay type: functional, cell-based;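 note: luciferase signal from HIV-1 Env mediated cell-cell fusion of effector and target cells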
[4] = off-target signal loss in HeLa-CEM21 co-culture – HeLa F-luc CTL cells, cherry-picked, counter-screen for HIV-1 Env fusion inhibitor project, dose response (AID 652040); assay type: functional, cell-based;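 note: potency for signal decrease marking cytotoxic or nonspecific inhibition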
[5] = HIV-1 AD8 envelope cell-cell fusion blockers – cherry-pick, dose response (AID 652062); assay type: functional, cell-based;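 note: luciferase signal from cell-cell fusion driven by HIV-1 clade B AD8 Env; potency is for inhibitors of fusion seen as a drop in luminescence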
[6] = molecular target: Glucose-6-phosphate 1-dehydrogenase (Homo sapiens, UniProt P11413); assay: inhibition of Homo sapiens G6PD, dose series – biochemical, fluorescence, selectivity assay for P. falciparum G6PD inhibitor project, dose response (AID 504792); assay type: functional
Glucose-6-phosphate 1-dehydrogenase, sequence (P11413 whole entry): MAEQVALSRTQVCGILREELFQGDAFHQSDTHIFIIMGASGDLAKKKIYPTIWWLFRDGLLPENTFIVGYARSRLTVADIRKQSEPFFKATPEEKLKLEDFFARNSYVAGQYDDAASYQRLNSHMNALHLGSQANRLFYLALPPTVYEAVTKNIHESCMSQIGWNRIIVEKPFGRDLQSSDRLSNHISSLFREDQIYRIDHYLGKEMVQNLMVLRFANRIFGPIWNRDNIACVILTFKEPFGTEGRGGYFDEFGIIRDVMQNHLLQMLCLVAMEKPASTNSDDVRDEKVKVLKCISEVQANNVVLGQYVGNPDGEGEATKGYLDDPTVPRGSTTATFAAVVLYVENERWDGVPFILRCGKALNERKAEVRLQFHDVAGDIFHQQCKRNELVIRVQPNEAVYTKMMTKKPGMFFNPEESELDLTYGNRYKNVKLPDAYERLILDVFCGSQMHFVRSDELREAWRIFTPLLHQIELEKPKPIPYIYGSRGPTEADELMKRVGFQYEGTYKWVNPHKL

[7] = molecular target: Voltage-dependent T-type calcium channel subunit alpha-1H (Homo sapiens, UniProt O95180); assay type: functional;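 note: channel activity triggered by adding a high calcium stimulation buffer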
Voltage-dependent T-type calcium channel subunit alpha-1H, sequence (O95180 whole entry): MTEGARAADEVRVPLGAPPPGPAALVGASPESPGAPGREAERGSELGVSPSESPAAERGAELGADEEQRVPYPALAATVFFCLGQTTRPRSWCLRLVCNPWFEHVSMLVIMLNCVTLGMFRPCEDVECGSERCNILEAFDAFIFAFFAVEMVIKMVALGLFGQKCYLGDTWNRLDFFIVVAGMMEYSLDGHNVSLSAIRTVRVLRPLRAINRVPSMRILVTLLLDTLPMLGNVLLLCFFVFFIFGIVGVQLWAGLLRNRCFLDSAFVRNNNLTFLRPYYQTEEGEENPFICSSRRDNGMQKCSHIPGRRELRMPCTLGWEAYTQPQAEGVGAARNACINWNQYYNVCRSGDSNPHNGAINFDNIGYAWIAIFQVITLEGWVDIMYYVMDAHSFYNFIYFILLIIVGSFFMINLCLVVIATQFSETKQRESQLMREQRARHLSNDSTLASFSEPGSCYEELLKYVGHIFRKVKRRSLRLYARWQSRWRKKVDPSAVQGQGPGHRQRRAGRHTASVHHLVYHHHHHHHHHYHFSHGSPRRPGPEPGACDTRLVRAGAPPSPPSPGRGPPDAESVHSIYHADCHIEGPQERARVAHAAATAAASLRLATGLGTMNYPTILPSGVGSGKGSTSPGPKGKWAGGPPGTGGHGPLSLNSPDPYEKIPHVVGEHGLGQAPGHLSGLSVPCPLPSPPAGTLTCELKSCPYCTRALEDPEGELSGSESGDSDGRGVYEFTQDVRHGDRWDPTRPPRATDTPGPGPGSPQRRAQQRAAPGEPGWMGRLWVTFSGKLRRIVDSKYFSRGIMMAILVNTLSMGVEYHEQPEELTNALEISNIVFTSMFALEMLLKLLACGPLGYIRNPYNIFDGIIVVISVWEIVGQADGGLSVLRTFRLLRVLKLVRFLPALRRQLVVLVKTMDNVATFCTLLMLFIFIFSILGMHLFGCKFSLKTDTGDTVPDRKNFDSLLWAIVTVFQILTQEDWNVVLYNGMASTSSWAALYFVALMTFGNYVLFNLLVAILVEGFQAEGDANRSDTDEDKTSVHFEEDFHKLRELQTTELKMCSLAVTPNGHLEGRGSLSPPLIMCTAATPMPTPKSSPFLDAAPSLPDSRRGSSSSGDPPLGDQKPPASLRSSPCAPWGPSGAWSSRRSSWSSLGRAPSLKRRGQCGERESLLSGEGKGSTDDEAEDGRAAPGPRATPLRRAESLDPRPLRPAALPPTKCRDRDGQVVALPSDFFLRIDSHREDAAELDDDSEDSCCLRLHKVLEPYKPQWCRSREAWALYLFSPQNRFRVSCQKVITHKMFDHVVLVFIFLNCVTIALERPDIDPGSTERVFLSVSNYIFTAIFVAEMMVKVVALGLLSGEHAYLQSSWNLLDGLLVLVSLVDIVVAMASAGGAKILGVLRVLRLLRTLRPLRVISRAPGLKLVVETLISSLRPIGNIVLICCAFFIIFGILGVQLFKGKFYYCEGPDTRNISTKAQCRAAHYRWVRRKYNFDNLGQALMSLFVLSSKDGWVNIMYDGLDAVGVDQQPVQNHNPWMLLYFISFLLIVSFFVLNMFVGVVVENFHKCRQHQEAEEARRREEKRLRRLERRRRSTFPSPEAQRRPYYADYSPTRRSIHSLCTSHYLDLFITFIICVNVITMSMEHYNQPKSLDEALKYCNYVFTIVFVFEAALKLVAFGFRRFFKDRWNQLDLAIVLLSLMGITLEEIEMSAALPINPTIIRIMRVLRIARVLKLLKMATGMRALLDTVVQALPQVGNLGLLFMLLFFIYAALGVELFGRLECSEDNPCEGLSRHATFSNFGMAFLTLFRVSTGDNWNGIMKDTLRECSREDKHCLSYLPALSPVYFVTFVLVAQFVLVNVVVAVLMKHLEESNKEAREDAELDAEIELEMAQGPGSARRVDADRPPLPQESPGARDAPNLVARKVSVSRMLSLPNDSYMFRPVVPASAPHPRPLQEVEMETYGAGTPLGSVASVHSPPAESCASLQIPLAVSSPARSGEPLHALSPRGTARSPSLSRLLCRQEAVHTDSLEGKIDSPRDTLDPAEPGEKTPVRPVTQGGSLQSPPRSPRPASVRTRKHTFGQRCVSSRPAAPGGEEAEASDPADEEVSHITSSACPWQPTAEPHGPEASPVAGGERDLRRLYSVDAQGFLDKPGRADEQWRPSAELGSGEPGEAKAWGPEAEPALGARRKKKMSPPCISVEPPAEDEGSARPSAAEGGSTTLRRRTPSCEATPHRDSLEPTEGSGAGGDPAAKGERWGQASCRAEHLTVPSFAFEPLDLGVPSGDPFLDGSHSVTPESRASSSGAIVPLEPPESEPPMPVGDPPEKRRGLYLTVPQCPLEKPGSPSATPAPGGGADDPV

[8] = P. falciparum Dd2 growth inhibitors, dose response, SYBR Green, cherry-picked samples (AID 1159567); assay type: functional, cell-based
[9] = reduction of Shn3 3'UTR-driven luciferase in osteoblasts – cell-based, Clone20 osteoblasts, firefly luciferase, cherry-picked, dose response (AID 624132); assay type: functional;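 note: firefly luciferase luminescence from reporter carrying the Shn3 3'UTR in osteoblasts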
Large T antigen = Large T antigen (Simian virus 40, UniProt P03070); assay type: functional, Betapolyomavirus macacae;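 note: Confirmatory-stage PubChem screen for compounds that inhibit SV40 T antigen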
Large T antigen, sequence (P03070 whole entry): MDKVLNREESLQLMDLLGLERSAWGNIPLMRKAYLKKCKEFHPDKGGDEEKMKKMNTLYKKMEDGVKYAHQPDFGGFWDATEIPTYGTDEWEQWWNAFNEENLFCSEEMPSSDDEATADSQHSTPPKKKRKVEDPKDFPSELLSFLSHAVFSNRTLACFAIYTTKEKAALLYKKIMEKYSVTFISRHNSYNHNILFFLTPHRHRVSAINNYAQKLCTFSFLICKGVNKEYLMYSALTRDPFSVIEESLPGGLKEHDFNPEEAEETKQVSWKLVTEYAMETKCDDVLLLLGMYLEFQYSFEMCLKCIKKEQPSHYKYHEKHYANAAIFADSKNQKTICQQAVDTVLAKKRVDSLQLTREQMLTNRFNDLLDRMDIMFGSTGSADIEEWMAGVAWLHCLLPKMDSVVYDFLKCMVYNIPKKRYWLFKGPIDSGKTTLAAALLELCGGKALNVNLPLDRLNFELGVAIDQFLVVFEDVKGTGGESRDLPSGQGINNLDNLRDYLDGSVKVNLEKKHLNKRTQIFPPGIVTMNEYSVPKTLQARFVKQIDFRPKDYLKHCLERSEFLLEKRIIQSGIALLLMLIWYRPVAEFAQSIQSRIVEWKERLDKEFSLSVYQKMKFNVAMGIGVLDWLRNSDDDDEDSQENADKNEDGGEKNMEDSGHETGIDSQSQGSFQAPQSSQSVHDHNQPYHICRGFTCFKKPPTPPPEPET

Fatty acid synthase [10] = molecular target: T2, Fatty acid synthase (Homo sapiens, UniProt P49327); assay: inhibition of human FAS-TE enzyme activity – biochemical, endpoint fluorescence intensity, uHTS hits, dose response (AID 624327); assay type: functional;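 note: fluorescence from hydrolysis of an O-methyl fluorescein acyl ester substrate by the enzyme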
Fatty acid synthase [11] = molecular target: T2, Fatty acid synthase; assay: inhibition of human FAS-TE enzyme activity – biochemical, kinetic fluorescence intensity, dose response (AID 624326); assay type: functional;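 note: rate of fluorescence rise from hydrolysis of a fluorogenic O-methyl fluorescein ester substrate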
Vero = assay: cells; assay type: functional; conditions: Chlorocebus sabaeus
[12] = molecular target: T3, Calpain-2 catalytic subunit (Sus scrofa, UniProt P43367); assay: m-calpain protease blockers, concentration series – biochemical, fluorogenic peptide substrate, dose response (AID 1420); assay type: functional
T3 sequence (P43367 whole entry): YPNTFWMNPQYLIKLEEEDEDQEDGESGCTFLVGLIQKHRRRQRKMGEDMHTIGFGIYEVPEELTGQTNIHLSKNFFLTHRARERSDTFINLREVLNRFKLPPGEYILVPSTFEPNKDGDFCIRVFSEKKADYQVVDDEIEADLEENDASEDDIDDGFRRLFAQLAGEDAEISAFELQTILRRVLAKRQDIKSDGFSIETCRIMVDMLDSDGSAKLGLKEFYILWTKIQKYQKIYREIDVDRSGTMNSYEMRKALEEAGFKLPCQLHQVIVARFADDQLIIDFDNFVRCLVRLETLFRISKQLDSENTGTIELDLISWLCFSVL

[13] = molecular target: T4, Rac GTPase-activating protein 1 (Homo sapiens, UniProt Q9H0H5); assay: blockers of MgcRacGAP-driven Rac1 GTP hydrolysis – biochemical, ADP Hunter fluorescence, primary and confirmatory, confirmation (AID 624330); assay type: functional
T4 sequence (Q9H0H5 whole entry): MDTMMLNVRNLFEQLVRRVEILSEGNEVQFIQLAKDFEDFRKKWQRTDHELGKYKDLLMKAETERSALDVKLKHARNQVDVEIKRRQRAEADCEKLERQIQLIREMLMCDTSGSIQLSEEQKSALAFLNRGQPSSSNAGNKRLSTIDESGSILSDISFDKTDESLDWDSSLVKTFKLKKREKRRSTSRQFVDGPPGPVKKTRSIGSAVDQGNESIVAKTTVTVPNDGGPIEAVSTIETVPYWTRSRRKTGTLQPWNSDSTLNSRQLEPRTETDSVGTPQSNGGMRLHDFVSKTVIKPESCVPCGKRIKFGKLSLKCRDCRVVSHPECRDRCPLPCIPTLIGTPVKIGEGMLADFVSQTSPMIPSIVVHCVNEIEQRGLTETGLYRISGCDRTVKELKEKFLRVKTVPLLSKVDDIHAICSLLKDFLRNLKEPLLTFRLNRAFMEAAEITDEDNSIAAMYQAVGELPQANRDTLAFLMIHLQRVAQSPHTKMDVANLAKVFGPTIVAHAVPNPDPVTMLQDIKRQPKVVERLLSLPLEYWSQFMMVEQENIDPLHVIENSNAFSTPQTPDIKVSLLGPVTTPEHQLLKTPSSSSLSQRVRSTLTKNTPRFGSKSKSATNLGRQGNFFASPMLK

[14] = molecular target: T5, RNA-binding protein pos-1 (Caenorhabditis elegans, UniProt G5EF15); assay: disruptors of C. elegans POS-1 RNA interaction – biochemical, fluorescence polarization, dose response (AID 1964);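 note: purified POS-1 fused to maltose binding protein made in E. coli; potency of compounds blocking POS-1 binding to fluorescent RNA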
T5 sequence (G5EF15 whole entry): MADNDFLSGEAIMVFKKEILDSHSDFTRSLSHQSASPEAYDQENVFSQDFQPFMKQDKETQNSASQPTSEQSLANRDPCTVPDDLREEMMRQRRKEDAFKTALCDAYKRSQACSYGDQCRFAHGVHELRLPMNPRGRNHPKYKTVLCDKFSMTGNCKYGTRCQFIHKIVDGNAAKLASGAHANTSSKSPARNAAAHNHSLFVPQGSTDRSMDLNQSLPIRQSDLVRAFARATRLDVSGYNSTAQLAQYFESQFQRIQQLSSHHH

[15] = molecular target: T6, Zinc finger protein mex-5 (Caenorhabditis elegans, UniProt Q9XUB2); assay: potency of MEX-5 RNA-binding blockers – biochemical, C. elegans, fluorescence polarization, dose response (AID 1960)
T6 sequence (Q9XUB2 whole entry): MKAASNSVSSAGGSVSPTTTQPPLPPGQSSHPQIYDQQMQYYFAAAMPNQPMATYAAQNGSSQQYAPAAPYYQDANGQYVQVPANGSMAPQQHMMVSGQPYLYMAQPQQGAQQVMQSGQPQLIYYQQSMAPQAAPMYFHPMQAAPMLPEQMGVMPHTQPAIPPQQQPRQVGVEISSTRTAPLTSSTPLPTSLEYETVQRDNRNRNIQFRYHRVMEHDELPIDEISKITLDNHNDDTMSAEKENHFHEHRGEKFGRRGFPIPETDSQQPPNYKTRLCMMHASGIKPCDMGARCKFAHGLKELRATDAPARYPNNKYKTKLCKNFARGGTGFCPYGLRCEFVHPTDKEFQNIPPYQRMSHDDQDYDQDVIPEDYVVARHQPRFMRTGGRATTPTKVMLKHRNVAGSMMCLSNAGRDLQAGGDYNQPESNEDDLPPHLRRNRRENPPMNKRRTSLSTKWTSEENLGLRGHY

## CCN(CC)c1ncnc2ccc(Br)cc12
[1]
  EC50: 13.8 µM (active)
[2]
  AC50: 3.83 µM (active)
[3]
  AC50: 6 µM (active)
[4]
  AC50: 3.74 µM (active)
[5]
  AC50: 6.58 µM (active)

## CCOC(=O)Cc1cc(O)n2nc(C(C)(C)C)cc2n1
[6]
  IC50: > 80 µM (inactive)

## CCCCN(Cc1ccccc1)S(=O)(=O)c1cc(Br)cc2c1N(C(C)=O)C(C)C2 (stereo not drawn)
[7]
  EC50: 18.2 µM (active)

## C[C@@H]1CN([C@@H](C)CO)C(=O)c2cc(NC(=O)Nc3ccc(C(F)(F)F)cc3)ccc2O[C@H]1CN(C)C(=O)Nc1cccc2ccccc12
[8]
  AC50: 5.06 µM (active)

## CCN(CC)S(=O)(=O)c1ccc(N2CCOCC2)c(NC(=O)c2nn(C(C)C)c(=O)c3ccccc23)c1
[9]
  AC50: 15.6 µM (active)

## COC(=O)C1=C(O)/C(=C/c2cccc(OC)c2O)N=C1C
Large T antigen
  IC50: 14.8 µM (active)

## N#CC1CCN(C(=O)c2ccc3c(Cl)c4c(nc3c2)CCCC4)CC1
Fatty acid synthase [10]
  IC50: 2.16 µM (active)
Fatty acid synthase [11]
  IC50: 1.89 µM (active)

## COc1cc(/C=C/C(=O)c2ccc(NS(=O)(=O)c3ccc(C)cc3)cc2)ccc1OC(F)F
Vero
  CC50: 22.5 µM (active)

## O=C(O)CC(Cc1ccc(Cl)cc1)C(=O)Nc1ccc([N+](=O)[O-])cc1 (stereo not drawn)
[12]
  IC50: > 50 µM (not active)

## O=C(NNc1cccc([N+](=O)[O-])c1)/C(=C\c1cccnc1)NC(=O)c1ccccc1
Fatty acid synthase [10]
  IC50: 6.04 µM (active)
Fatty acid synthase [11]
  IC50: 4.39 µM (active)

## CCOC1=C2[C@@H](CN(S(=O)(=O)c3ccccc3C)[C@H]2c2ccc(Cl)cc2)[C@H]2C(=O)NC(=O)[C@H]2C1
[2]
  AC50: 3.71 µM (active)
[3]
  AC50: 3.92 µM (active)
[4]
  AC50: 7.02 µM (active)
[5]
  AC50: 19.5 µM (active)

## C[C@@H]1CN([C@H](C)CO)C(=O)c2cccc(NS(=O)(=O)c3ccccc3)c2O[C@H]1CN(C)Cc1ccc(Oc2ccccc2)cc1
[8]
  AC50: 6.14 µM (active)

## CCC(=O)N1CC2(C1)CN(Cc1ccccc1Cl)[C@@H](CO)c1[nH]c3cc(OC)ccc3c12
[8]
  AC50: 6.32 µM (active)

## COc1ccc(C2=NN(C(=O)c3ccc(Cl)c([N+](=O)[O-])c3)C(c3ccccc3)C2)cc1 (stereo not drawn)
[12]
  IC50: 3.26 µM (not active)

## N=C(N)N/N=C/c1ccc(Cl)c(Cl)c1
Vero
  CC50: 21.4 µM (active)

## Cc1cc(NC(=O)/C=C/C(=O)N(c2ccccc2C)C(C(=O)NC2CCCC2)c2ccc(F)cc2)no1 (stereo not drawn)
Vero
  CC50: 12.1 µM (active)

## CCC(=O)C1=C(NCCc2c(C)[nH]c3ccc(C)cc23)CC(c2ccccc2)CC1=O (stereo not drawn)
[7]
  EC50: 798 µM (active)

## Cc1[nH]c2ccccc2c1Cc1nnc(SCc2ccccc2)o1
[7]
  EC50: 3.55 µM (active)

## CCc1ccc(C(=O)COC(=O)c2cc([N+](=O)[O-])ccc2NCCO)cc1
Fatty acid synthase [10]
  IC50: 1.87 µM (active)
Fatty acid synthase [11]
  IC50: 3.82 µM (active)

## O=C(c1ccc(Cl)c(Cl)c1)N1CCC(=O)N(C(COCc2ccccc2)Cc2ccccc2)CC1 (stereo not drawn)
[7]
  EC50: 2.88 µM (active)

## C/C(=N/Nc1ccc(C(=O)O)cc1)c1ccc2c(c1)Nc1ccccc1S2
Fatty acid synthase [10]
  IC50: 13.2 µM (active)
[13]
  IC50: 50.6 µM (active)
Fatty acid synthase [11]
  IC50: 11.1 µM (active)

## O=C(c1ccccn1)N1CC(=O)N2[C@H](C1)[C@@H](c1ccc(C#CCc3ccccc3)cc1)[C@@H]2CO
[8]
  AC50: 9.01 µM (active)

## O=C1NC(=O)/C(=C2\C(=O)Nc3ccc([N+](=O)[O-])cc32)S1
[14]
  EC50: 13.2 µM (active)
[15]
  EC50: 21.5 µM (inconclusive)
Fatty acid synthase [10]
  IC50: 13.8 µM (active)
Fatty acid synthase [11]
  IC50: 9.24 µM (active)

## CCCCCCCCCC(=O)N1c2ccccc2NC(=O)C1CC(=O)Nc1ccc(C(=O)O)cc1 (stereo not drawn)
[12]
  IC50: 21.1 µM (not active)

## Cc1ccsc1/C=C1/C(=O)NN(c2ccccc2)C1=O
Large T antigen
  IC50: 28.1 µM (active)

## O=C(CCC(=O)Nc1ccccc1Cl)N/N=C/c1ccccc1
[6]
  IC50: 31.6 µM (inactive)

## Cc1cc(C)c(O)c(-c2cc(C(=O)NCc3ccccc3)[nH]n2)c1
[12]
  IC50: 3.02 µM (not active)

## COc1ccc(CNC(=O)Cc2cn(C)c3ccccc23)c(OC)c1
[6]
  IC50: > 80 µM (inactive)

## O=C(c1cc2sccc2n1Cc1ccc(F)cc1)N1CCCc2ccccc21
[7]
  EC50: 4.88 µM (active)

## CCN(C[C@H]1N[C@@](CC)(C(=O)OC)[C@H]2C(=O)N(Cc3ccccc3)C(=O)[C@@H]12)C(=O)Nc1ccc(Cl)cc1
[2]
  AC50: < 0.26 µM (active)
[3]
  AC50: < 0.26 µM (active)
[4]
  AC50: 0.367 µM (active)
[5]
  AC50: 0.277 µM (active)

## Cc1ccc(S(=O)(=O)N2CCN(S(=O)(=O)c3ccc(C)cc3)C2c2ccccc2)cc1
[2]
  AC50: 4.63 µM (active)
[3]
  AC50: 4.2 µM (active)
[4]
  AC50: 4.72 µM (active)
[5]
  AC50: 1.58 µM (active)

## COc1cc(NC(C)CCc2ccccc2)cc(OC)c1OC (stereo not drawn)
[6]
  IC50: 43.3 µM (inactive)
